Results from patent US20240158446A1, “CYCLIC COMPOUND HAVING SELECTIVE INHIBITORY ACTION ON KRAS OVER HRAS AND NRAS” (CHUGAI SEIYAKU KABUSHIKI KAISHA, priority 2021, published 2024).
pIC50, pKd: −log10 of the molar value. Read-outs that look alike come from different tables or passages of the source.

Experiments:
[1] = test system: human lung cancer strain NCI-H441;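 note: cell proliferation inhibition after four days measured by CellTiter-Glo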
[2] = molecular target: GDP-bound HRAS wild-type protein (Homo sapiens, UniProt P01112); test: Binding to HRAS by surface plasmon resonance (SPR), Single Cycle Kinetics; details: SPR; for HRAS/KRAS (ratio of KD value for HRAS to KD value for KRAS): GDP-bound HRAS wild-type protein vs GDP-bound KRAS wild-type protein
[3] = molecular target: GDP-bound NRAS wild-type protein (Homo sapiens, UniProt P01111); test: Binding to NRAS by surface plasmon resonance (SPR), Single Cycle Kinetics; details: SPR; for NRAS/KRAS (ratio of KD value for NRAS to KD value for KRAS): GDP-bound NRAS wild-type protein vs GDP-bound KRAS wild-type protein
[4] = molecular target: GDP-bound KRAS wild-type protein (Homo sapiens, UniProt P01116); test: Binding to KRAS by surface plasmon resonance (SPR), Single Cycle Kinetics; details: SPR, Single Cycle Kinetics
[5] = GDP-bound KRAS wild-type protein, read-out: KRAS KD
[6] = 1:1 binding model, GDP-bound KRAS wild-type protein, read-out: KRAS KD

GDP-bound HRAS wild-type protein, sequence (P01112 whole entry): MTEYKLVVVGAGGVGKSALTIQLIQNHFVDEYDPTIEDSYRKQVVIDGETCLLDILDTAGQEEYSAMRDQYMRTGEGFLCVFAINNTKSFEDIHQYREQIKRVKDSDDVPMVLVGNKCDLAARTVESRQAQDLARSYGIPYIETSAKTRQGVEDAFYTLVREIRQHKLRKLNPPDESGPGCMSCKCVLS
GDP-bound KRAS wild-type protein, sequence (P01116 whole entry): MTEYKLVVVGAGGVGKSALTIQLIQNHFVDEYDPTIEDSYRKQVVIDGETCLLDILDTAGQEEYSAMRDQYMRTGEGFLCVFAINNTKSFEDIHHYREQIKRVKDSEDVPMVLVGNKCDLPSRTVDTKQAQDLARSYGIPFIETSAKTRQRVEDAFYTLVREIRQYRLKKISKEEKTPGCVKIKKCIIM
GDP-bound NRAS wild-type protein, sequence (P01111 whole entry): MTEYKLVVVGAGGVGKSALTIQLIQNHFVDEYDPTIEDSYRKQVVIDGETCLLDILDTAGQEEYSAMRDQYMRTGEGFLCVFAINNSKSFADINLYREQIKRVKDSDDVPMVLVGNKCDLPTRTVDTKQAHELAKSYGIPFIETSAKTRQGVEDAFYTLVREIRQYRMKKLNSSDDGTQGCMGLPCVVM

SMILES | pIC50 [1] | pKd [4, 5] | pIC50 ([1]; read-out: NCI-H441 cell proliferation inhibitory activity, 50% proliferation inhibitory concentration (IC50 value), NCI-H441, four days, CellTiter-Glo) | pKd ([4]; 1:1 binding model, read-out: KD value with respect to GDP-bound KRAS wild-type protein) | pKd [4, 6] | HRAS/KRAS (ratio of KD value for HRAS to KD value for KRAS) [2] | NRAS/KRAS (ratio of KD value for NRAS to KD value for KRAS) [3] | ratio of the KD value with respect to GDP-bound HRAS wild-type protein to the KD value with respect to KRAS ([2]; KD(HRAS)/KD(KRAS)) | ratio of the KD value with respect to GDP-bound NRAS wild-type protein to the KD value with respect to KRAS ([3]; KD(NRAS)/KD(KRAS)) | HRAS/KRAS (ratio of KD value for HRAS to KD value for KRAS) ([2]; KD ratio class) | NRAS/KRAS (ratio of KD value for NRAS to KD value for KRAS) ([3]; KD ratio class)
CCO[C@@H]1C[C@H]2C(=O)NC3(CCC3)C(=O)N(C)[C@@H](C3CCCC3)C(=O)N(CC)[C@H](C(=O)N3CCOCC3)CC(=O)N(C)[C@@H](CC)C(=O)N[C@@H]([C@@H](C)CC)C(=O)N(C)CC(=O)N(C)[C@H]3C/C=C\CCN(C3=O)[C@@H](Cc3ccc(C(F)(F)F)cc3)C(=O)N(C)CC(=O)N[C@@H](CCc3cc(F)c(C(F)(F)F)c(F)c3)C(=O)N2C1 [PP0979] | 6.55 | 8.77 |  |  |  | A (a compound having 10 or more and less than 20 is denoted as A) | AA (a compound having 20 or more is denoted as AA) |  |  |  | 
CCO[C@@H]1C[C@H]2C(=O)NC3(CCC3)C(=O)N(C)[C@@H](C3CCCC3)C(=O)N(C)[C@H](C(=O)N3CCOCC3)CC(=O)N(C)[C@@H](Cc3ccc(C#N)cc3)C(=O)N[C@@H]([C@@H](C)CC)C(=O)N(C)CC(=O)N(C)[C@H]3CCCCCN(C3=O)[C@@H](Cc3ccc(C(F)(F)F)cc3)C(=O)N(C)CC(=O)N[C@@H](CCc3cc(F)c(C(F)(F)F)c(F)c3)C(=O)N2C1 [PP1167] | 6.87 | 9.30 |  |  |  | B (a compound having 3 or more and less than 10 is denoted as B) | B (a compound having 3 or more and less than 10 is denoted as B) |  |  |  | 
CCO[C@@H]1C[C@H]2C(=O)NC3(CCC3)C(=O)N(C)[C@@H](C3CCCC3)C(=O)N(C)[C@H](C(=O)N3CCOCC3)CC(=O)N(C)[C@@H](CC(C)C)C(=O)N[C@@H]([C@@H](C)CC)C(=O)N3CC[C@H]3C(=O)N(C)[C@H]3CC[C@@H](C)CN(C3=O)[C@@H](Cc3ccc(C(F)(F)F)cc3)C(=O)N(C)CC(=O)N[C@@H](CCc3cc(F)c(C(F)(F)F)c(F)c3)C(=O)N2C1 [PP1373] | 7.91 |  |  |  | 9.46 |  |  |  |  | B (a compound having 3 or more and less than 10 is denoted as B) | B (a compound having 3 or more and less than 10 is denoted as B)
CCO[C@@H]1C[C@H]2C(=O)NC3(CCCC3)C(=O)N(C)[C@@H](C(CC)CC)C(=O)N(C)[C@H](C(=O)N3CCCC3)CC(=O)N(C)[C@@H](COC)C(=O)N[C@@H]([C@@H](C)CC)C(=O)N(C)CC(=O)N(C)[C@H]3C/C=C\CCN(C3=O)[C@@H](CC3CCCCC3)C(=O)N(C)CC(=O)N[C@@H](CCc3cc(F)c(C(F)(F)F)c(F)c3)C(=O)N2C1 [PP1439] | 7.06 |  |  |  | 8.92 |  |  |  |  | A (a compound having 10 or more and less than 20 is denoted as A) | AA (a compound having 20 or more is denoted as AA)
CCO[C@@H]1C[C@H]2C(=O)NC3(CCC3)C(=O)N(C)[C@@H](C3CCCC3)C(=O)N(C)[C@H](C(=O)N(C)C)CC(=O)N(C)[C@@H](Cc3ccc(C#N)cc3)C(=O)N[C@@H]([C@@H](C)CC)C(=O)N(C)CC(=O)N(C)[C@H]3CCCCCN(C3=O)[C@@H](Cc3ccc(F)cc3)C(=O)N(C)CC(=O)N[C@@H](CCc3cc(F)c(C(F)(F)F)c(F)c3)C(=O)N2C1 [PP1157] | 7.52 | 10.21 |  |  |  | B (a compound having 3 or more and less than 10 is denoted as B) | B (a compound having 3 or more and less than 10 is denoted as B) |  |  |  | 
CCO[C@@H]1C[C@H]2C(=O)NC3(CCC3)C(=O)N(C)[C@@H](C3CCCC3)C(=O)N(C)[C@H](C(=O)N(C)C)CC(=O)N(C)[C@@H](Cc3cccs3)C(=O)N[C@@H]([C@@H](C)CC)C(=O)N(C)CC(=O)N(C)[C@H]3CCCCCN(C3=O)[C@@H](Cc3ccc(C(F)(F)F)cc3)C(=O)N(C)CC(=O)N[C@@H](CCc3cc(F)c(C(F)(F)F)c(F)c3)C(=O)N2C1 [PP1169] | 7.13 | 9.49 |  |  |  | B (a compound having 3 or more and less than 10 is denoted as B) | B (a compound having 3 or more and less than 10 is denoted as B) |  |  |  | 
CCO[C@@H]1C[C@H]2C(=O)NC3(CCC3)C(=O)N(C)[C@@H](C3CCCC3)C(=O)N(C)[C@H](C(=O)N(C)C)CC(=O)N(C)[C@@H](CC3CC3)C(=O)N[C@@H]([C@@H](C)CC)C(=O)N(C)CC(=O)N(C)[C@H]3C/C=C\CCN(C3=O)[C@@H](Cc3ccc(C)cc3)C(=O)N(C)CC(=O)N[C@@H](CCc3cc(F)c(C(F)(F)F)c(F)c3)C(=O)N2C1 [PP1407, (2S,8S,12R,14S,20S,23S,27S,30S,36S,38Z)-20-cyclopentyl-27-(cyclopropylmethyl)-8-[2-[3,5-difluoro-4-(trifluoromethyl)phenyl]ethyl]-12-ethoxy-N,N,4,19,22,26,32,35-octamethyl-30-[(1S)-1-methylpropyl]-3,6,9,15,18,21,25,28,31,34,42-undecaoxo-2-(p-tolylmethyl)spiro[1,4,7,10,16,19,22,26,29,32,35-undecazatricyclo[34.5.1.0^10,14]dotetracont-38-ene-17,1′-cyclobutane]-23-carboxamide] | 7.73 |  |  |  | 10.13 |  |  |  |  | A (a compound having 10 or more and less than 20 is denoted as A) | A (a compound having 10 or more and less than 20 is denoted as A)

The next lines start with results.

pIC50 [1] | pKd [4, 5] | pIC50 ([1]; read-out: NCI-H441 cell proliferation inhibitory activity, 50% proliferation inhibitory concentration (IC50 value), NCI-H441, four days, CellTiter-Glo) | pKd ([4]; 1:1 binding model, read-out: KD value with respect to GDP-bound KRAS wild-type protein) | pKd [4, 6] | SMILES | HRAS/KRAS (ratio of KD value for HRAS to KD value for KRAS) [2] | NRAS/KRAS (ratio of KD value for NRAS to KD value for KRAS) [3] | ratio of the KD value with respect to GDP-bound HRAS wild-type protein to the KD value with respect to KRAS ([2]; KD(HRAS)/KD(KRAS)) | ratio of the KD value with respect to GDP-bound NRAS wild-type protein to the KD value with respect to KRAS ([3]; KD(NRAS)/KD(KRAS)) | HRAS/KRAS (ratio of KD value for HRAS to KD value for KRAS) ([2]; KD ratio class) | NRAS/KRAS (ratio of KD value for NRAS to KD value for KRAS) ([3]; KD ratio class)
7.64 | 9.48 |  |  |  | CCC[C@H]1C(=O)N[C@@H]([C@@H](C)CC)C(=O)N2C[C@@H](OC)C[C@H]2C(=O)N(C)[C@H]2C/C=C\CCN(C2=O)[C@@H](Cc2ccc(C)cc2)C(=O)N(C)CC(=O)N[C@@H](CCc2ccc(C(F)(F)F)c(OC)c2)C(=O)N2C[C@@H](C)C[C@H]2C(=O)NC2(CC(C)(C)C2)C(=O)N(C)[C@@H](C2CCCC2)C(=O)N(C)[C@H](C(=O)N(C)C)CC(=O)N1C [PP2388] | B (a compound having 3 or more and less than 10 is denoted as B) | A (a compound having 10 or more and less than 20 is denoted as A) |  |  |  | 
7.32 | 9.06 |  |  |  | CCC[C@H]1C(=O)N[C@@H]([C@@H](C)CC)C(=O)N(C2CC2)CC(=O)N(C)[C@H]2C/C=C\CCN(C2=O)[C@@H](CC2CCC(F)(F)CC2)C(=O)N(C)CC(=O)N[C@@H](CCc2ccc(C(F)(F)F)c(OC)c2)C(=O)N2C[C@@H](C)C[C@H]2C(=O)N(C)C2(CCC2)C(=O)N(C)[C@@H](C2CCCC2)C(=O)N(C)[C@H](C(=O)N(C)C)CC(=O)N1C [PP2378] | A (a compound having 10 or more and less than 20 is denoted as A) | B (a compound having 3 or more and less than 10 is denoted as B) |  |  |  | 
7.70 | 9.36 |  |  |  | CCO[C@@H]1C[C@H]2C(=O)NC3(CC(C)(C)C3)C(=O)N(C)[C@@H](C(CC)CC)C(=O)N(C)[C@H](C(=O)N(C)C)CC(=O)N(C)[C@@H](COC)C(=O)N[C@@H]([C@@H](C)CC)C(=O)N(C)CC(=O)N(C)[C@H]3C/C=C\CCN(C3=O)[C@@H](CC3CCC(F)(F)CC3)C(=O)N(C)CC(=O)N[C@@H](CCc3cc(F)c(C(F)(F)F)c(F)c3)C(=O)N2C1 [PP2440] | A (a compound having 10 or more and less than 20 is denoted as A) | A (a compound having 10 or more and less than 20 is denoted as A) |  |  |  | 
 | 9.74 | 8.17 | 9.74 |  | CCC[C@H]1C(=O)N[C@@H]([C@@H](C)CC)C(=O)N2CCC[C@H]2C(=O)N(C)[C@H]2C/C=C\CCN(C2=O)[C@@H](Cc2ccc(C)cc2)C(=O)N(C)CC(=O)N[C@@H](CCc2ccc(C(F)(F)F)c(OC)c2)C(=O)N2C[C@H](OCC)C[C@H]2C(=O)N(C)C2(CCC2)C(=O)N(C)[C@@H](C2CCCC2)C(=O)N(C)[C@H](C(=O)N2CCCC2)CC(=O)N1C [PP3102, (1S,4S,10S,13S,17S,20S,26S,28R,32S,38S,42Z)-20-cyclopentyl-28-ethoxy-32-[2-[3-methoxy-4-(trifluoromethyl)phenyl]ethyl]-2,14,18,21,24,36-hexamethyl-10-[(1S)-1-methylpropyl]-13-propyl-38-(p-tolylmethyl)-17-(pyrrolidine-1-carbonyl)spiro[2,8,11,14,18,21,24,30,33,36,39-undecazatetracyclo[37.5.1.0^4,8.0^26,30]pentatetracont-42-ene-23,1′-cyclobutane]-3,9,12,15,19,22,25,31,34,37,45-undecone] | A (a compound having 10 or more and less than 20 is denoted as A) | A (a compound having 10 or more and less than 20 is denoted as A) | A (a compound having 10 or more and less than 20 is denoted as A) | A (a compound having 10 or more and less than 20 is denoted as A) |  | 
